Results: patent US5565432A (American Home Products Corporation, priority 1994, dated 1996)
Counter-ions that a name gives are not always drawn.

What was measured:
normal human plasma = test: Anticoagulant activity, partial thromboplastin time (APTT) assay; settings: for Anticoagulation Activity (APTT) Relative to Heparin: ratio>1 indicates weaker activity relative to heparin on a μg/mL basis
Description: The anticlotting activity of the compounds of this invention were evaluated in a partial thromboplastin time (APTT) assay using normal human plasma collected from 5 donors using the procedure of Fenichel et. al. (Clin. Chem. 1964, 10, 69). A BBL Fibrometer automatic precesion coagulation timer utilizing a 0.3 ml probe was employed. An Ellagic acid activated partial thromboplastin was used for these experiments. This reagent is added to human citrated plasma equilibrated at 37° C. in a plastic well in the clot timer. Calcium at 37° C. is added, the clot timer is started and the time for fibrin clot formation (in seconds) was recorded. The effect of the compounds, added to plasma, over a concentration of 12.5-200 μg/mL was determined. […] An unfractionated heparin comparator was used over the concentration range of 1.25-10 μg/mL. Clotting tests at all concentrations were run in triplicate. Analysis of variance for a randomized block design was used to determine the significance of differences observed in the clotting times. The potency is reported relative to heparin wherein ratio>1 indicates weaker activity relative to heparin on a μg/mL basis.

[1] = tested on: common carotid artery, intimal thickening; test: Experimental model of restenosis (air-dried carotid artery), intimal thickening; format: in vivo, Male Sprague-Dawley Rats; settings: in comparison to untreated animals; dose of 125 μg/mL, i.v. osmotic pump, 2 weeks
Description: Male Sprague-Dawley Rats weighing between 0.3-0.4 kg were housed in polycarbonate cages (2 per box) with corn cob bedding and provided with Purina 5001 rat chow and water (ad. lib. A 12 hr/12 hr light: dark cycle was maintained with light on at 7:00 A.M). After acclimation, rats were randomly assigned to treatment groups (12 per group). The rats were anesthetized with Ketamine, Acepromazone, and Xylazine. The anterior portion of the neck was shaved, a 3 cm incision was made along the midline, and the trachea was exposed by gently parting the underlying tissues and muscle. A retractor was inserted to hold the muscles and tissues aside and the common carotid artery was isolated from the surrounding tissue. A 2 cm segment of the right common carotid artery was lifted such that an 11 mm approximator was placed on the vessel at about […] before the bifurcation of the internal and external branches of the carotid artery. The 5 mm segment of the common carotid artery between the clamps of the approximator was punctured at about 0.5 mm from the edge of each clamp with a 30 G needle and a gentle stream of isotonic saline was injected through the isolated segment to flush out any blood. […]
Two weeks following surgery, the rats were sacrificed via anesthetized exsanquination. […] The cross sections were photographed and the arterial media and intima were digitized and measured. […]

[2] = tested on: human aortic endothelial cells; test: Effect on human endothelial cell growth; format: cell-based; settings: driven by 2% FBS, at doses inhibitory towards human smooth muscle cell proliferation driven by 10% FBS (FIG. 1)
Description: The ability of the compounds of the present invention to inhibit smooth muscle cell proliferation and modulate endothelial cell growth was established using isolated aortic cells obtained from commercial sources or, for certain species, prepared in-house. Cell lines used in this study include human and porcine aortic smooth muscle cells and human aortic endothelial cells. Human aortic cell lines were obtained from Clonetics Corporation (San Diego).
Cells were assayed in early passage (generally passage 3-7) at sub-confluent conditions. Cultures were grown in 16 mm (24 well) multi-well culture dishes in media 199 supplemented with 10% fetal bovine serum and 2% antibiotic/antimycotic. At sub-confluence, the cells were placed in a defined serum free medium (AIM-V; Gibco) for 24-48 h prior to initiating the experimental protocol.
Growth factor and serum stimulations were optimized for each cell type.
Compounds were added to each well at 50 fold dilution (20 μL/well) and the plates were incubated for 24-36 h at 37° C. in 5% CO2. […] Compounds were routinely assayed at 1, 10, and 100 μM. […]
Data was obtained, in triplicate, for both control and experimental samples. […] Data was expressed as a percent of control from which IC50 s could be determined. […]

smooth muscle cell = settings: prior art; cited from earlier work
restenosis = settings: prior art; cited from earlier work

Q: With Cc1ccc(CO[C@@H]2O[C@H](COS(=O)(=O)O)[C@@H](O[C@@H]3O[C@H](COS(=O)(=O)O)[C@@H](OS(=O)(=O)O)[C@H](OS(=O)(=O)O)[C@H]3OS(=O)(=O)O)[C@H](OS(=O)(=O)O)[C@H]2OS(=O)(=O)O)cc1NC(=O)c1cc(C(=O)Nc2cc(CO[C@@H]3O[C@H](COS(=O)(=O)O)[C@@H](O[C@@H]4O[C@H](COS(=O)(=O)O)[C@@H](OS(=O)(=O)O)[C@H](OS(=O)(=O)O)[C@H]4OS(=O)(=O)O)[C@H](OS(=O)(=O)O)[C@H]3OS(=O)(=O)O)ccc2C)cc(C(=O)Nc2cc(CO[C@@H]3O[C@H](COS(=O)(=O)O)[C@@H](O[C@@H]4O[C@H](COS(=O)(=O)O)[C@@H](OS(=O)(=O)O)[C@H](OS(=O)(=O)O)[C@H]4OS(=O)(=O)O)[C@H](OS(=O)(=O)O)[C@H]3OS(=O)(=O)O)ccc2C)c1 [Example 9, Benzene-1,3,5-tricarboxylic Acid Tris{[2-methyl-5-(hepta-O-sulfato-β-cellobiosyloxymethyl)phenyl]amide}Heneicosasodium Salt] as the molecule, how does the “Anticoagulation Activity (APTT), in words” value (normal human plasma; at 25-200 μg/mL) read?
A: no signifcant

Q: For O=C(Nc1cc(CO[C@@H]2O[C@H](COS(=O)(=O)O)[C@@H](O[C@@H]3O[C@H](COS(=O)(=O)O)[C@@H](OS(=O)(=O)O)[C@H](OS(=O)(=O)O)[C@H]3OS(=O)(=O)O)[C@H](OS(=O)(=O)O)[C@H]2OS(=O)(=O)O)ccc1Cl)c1cc(C(=O)Nc2cc(CO[C@@H]3O[C@H](COS(=O)(=O)O)[C@@H](O[C@@H]4O[C@H](COS(=O)(=O)O)[C@@H](OS(=O)(=O)O)[C@H](OS(=O)(=O)O)[C@H]4OS(=O)(=O)O)[C@H](OS(=O)(=O)O)[C@H]3OS(=O)(=O)O)ccc2Cl)cc(C(=O)Nc2cc(CO[C@@H]3O[C@H](COS(=O)(=O)O)[C@@H](O[C@@H]4O[C@H](COS(=O)(=O)O)[C@@H](OS(=O)(=O)O)[C@H](OS(=O)(=O)O)[C@H]4OS(=O)(=O)O)[C@H](OS(=O)(=O)O)[C@H]3OS(=O)(=O)O)ccc2Cl)c1 [Example 11], which “inhibition of intimal thickening” value [1] is on record?
A: 50%

Q: What about the “Anticoagulation Activity (APTT) Relative to Heparin” value (normal human plasma) of the same molecule?
A: 72

Q: What about the “human endothelial cell growth” value [2] of the same molecule?
A: enhance human endothelial cell growth

Q: For O=C(Nc1cc(CO[C@@H]2O[C@H](COS(=O)(=O)O)[C@@H](O[C@@H]3O[C@H](COS(=O)(=O)O)[C@@H](OS(=O)(=O)O)[C@H](OS(=O)(=O)O)[C@H]3OS(=O)(=O)O)[C@H](OS(=O)(=O)O)[C@H]2OS(=O)(=O)O)cc(CO[C@@H]2O[C@H](COS(=O)(=O)O)[C@@H](O[C@@H]3O[C@H](COS(=O)(=O)O)[C@@H](OS(=O)(=O)O)[C@H](OS(=O)(=O)O)[C@H]3OS(=O)(=O)O)[C@H](OS(=O)(=O)O)[C@H]2OS(=O)(=O)O)c1)c1cc(C(=O)Nc2cc(CO[C@@H]3O[C@H](COS(=O)(=O)O)[C@@H](O[C@@H]4O[C@H](COS(=O)(=O)O)[C@@H](OS(=O)(=O)O)[C@H](OS(=O)(=O)O)[C@H]4OS(=O)(=O)O)[C@H](OS(=O)(=O)O)[C@H]3OS(=O)(=O)O)cc(CO[C@@H]3O[C@H](COS(=O)(=O)O)[C@@H](O[C@@H]4O[C@H](COS(=O)(=O)O)[C@@H](OS(=O)(=O)O)[C@H](OS(=O)(=O)O)[C@H]4OS(=O)(=O)O)[C@H](OS(=O)(=O)O)[C@H]3OS(=O)(=O)O)c2)cc(C(=O)Nc2cc(CO[C@@H]3O[C@H](COS(=O)(=O)O)[C@@H](O[C@@H]4O[C@H](COS(=O)(=O)O)[C@@H](OS(=O)(=O)O)[C@H](OS(=O)(=O)O)[C@H]4OS(=O)(=O)O)[C@H](OS(=O)(=O)O)[C@H]3OS(=O)(=O)O)cc(CO[C@@H]3O[C@H](COS(=O)(=O)O)[C@@H](O[C@@H]4O[C@H](COS(=O)(=O)O)[C@@H](OS(=O)(=O)O)[C@H](OS(=O)(=O)O)[C@H]4OS(=O)(=O)O)[C@H](OS(=O)(=O)O)[C@H]3OS(=O)(=O)O)c2)c1 [Example 14, Benzene-1,3,5-tricarboxylic Acid Tris{[3,5-bis-(hepta-O-sulfato-β-D-cellobiosyloxymethyl)phenyl]amide}Tetratetracontasodium Salt], which “Anticoagulation Activity (APTT) Relative to Heparin” value (normal human plasma) is on record?
A: 3.1

Q: With Beta-Cyclodextrin tetradecasulfate as the molecule, how does the “SMC proliferation inhibition (literature)” value (smooth muscle cell) read?
A: smooth muscle cell proliferation inhibitor

Q: And the “inhibition of restenosis (literature)” value (restenosis)?
A: effective inhibitor of restenosis
